This is an account of results in ChEMBL document CHEMBL5321278, “Discovery of Aminoratjadone Derivatives as Potent Noncovalent CRM1 Inhibitors” (J Med Chem, 2023).

pIC50, pKd: −log10 of the molar value. The source made the active and inactive calls. No cut-off for these calls is given here. Where a SMILES comes first, the peptide text is derived from it. The star is where a group is joined. Cbz = O=C(OCc1ccccc1)*

Assay [1] has as its target T1, Exportin-1 (Homo sapiens, UniProt O14980). In words: Non-covalent inhibition of CRM1 (unknown origin) assessed as reversal of GST-tagged NES peptide binding.
The target in assay [2] is T1, Exportin-1. Kind of assay: Inhibition of CRM1 nuclear export in human HeLa cells assessed as CRM1 depletion measured after 6 hrs. Format: cell-based. Particulars: for inhibition: dose 0.1-9 µM.
For assay [3], the system named is HeLa. Kind of assay: Downregulation of CRM1 expression in human HeLa cells at 9 uM incubated for 6 hrs by Western blot analysis. In kind it is functional, cell-based. (Immunoblotting shows a protein as a band on a membrane.)
Assay [4] concerns RKO. Kind of assay: Cytotoxicity against SiRNA mediated CRM1 knockdown human RKO cells assessed as reduction in cell viability at 0.3 to 1 uM incubated for 72 hrs by CCK-8 assay. In kind it is functional, cell-based. Particulars: dose 0.3-1 µM. (In general: Tetrazolium assays rely on reduction of a dye to a coloured formazan, in cell work by metabolically active cells.)
The test system of assay [5] is RKO. In words: Cytotoxicity against human RKO cells assessed as reduction in cell viability incubated for 72 hrs by CCK-8 assay. In kind it is functional, cell-based.
The target in assay [6] is T1, Exportin-1. In words: Inhibition of CRM1-mediated nuclear export in human HCT-116 cells assessed as inhibition of nuclear export of cargoes at 1 uM. Format: cell-based.
Assay [7] relates to HCT-116. In words: Cytotoxicity against SiRNA mediated CRM1 knockdown human HCT-116 cells assessed as reduction in cell viability at 0.3 to 1 uM incubated for 72 hrs by CCK-8 assay. Particulars: dose 0.3-1 µM. Format: functional, cell-based.
In assay [8] the test system is HeLa. In words: Downregulation of CRM1 mRNA expression in human HeLa cells at 9 uM incubated for 6 hrs. In kind it is functional, cell-based.
Assay [9] has as its target T1, Exportin-1. Kind of assay: Inhibition of CRM1-mediated nuclear export in human HeLa cells expressing mCherry-tagged NES reporter incubated for 3 hrs by confocal microscopy analysis. Particulars: for inhibition: dose 0.09-3 µM. Format: cell-based.
Assay [10] deals with T1, Exportin-1. Kind of assay: Non-covalent inhibition of CRM1 (unknown origin) assessed as reversal of GST-tagged NES peptide binding pretreated with CRM1 followed by compound addition and measured after 2 hrs.
The target in assay [11] is T1, Exportin-1. In words: Inhibition of CRM1 (unknown origin) assessed as binding of GST-tagged NES peptide.
For assay [12], the system named is HCT-116. In words: Cytotoxicity against human HCT-116 cells assessed as reduction in cell viability incubated for 72 hrs by CCK-8 assay. Format: functional, cell-based. Particulars: HCT-116, 72 h.
For assay [13], the system named is Exportin-1 (Homo sapiens), O14980 [C528S]. In words: Inhibition of CRM1 C528S mutant-mediated nuclear export in human HeLa cells expressing mCherry-tagged NES reporter at 1 uM incubated for 3 hrs by confocal microscopy analysis. Format: cell-based.
Sequence of Exportin-1 (Homo sapiens), O14980 [C528S] (O14980 whole entry C528S): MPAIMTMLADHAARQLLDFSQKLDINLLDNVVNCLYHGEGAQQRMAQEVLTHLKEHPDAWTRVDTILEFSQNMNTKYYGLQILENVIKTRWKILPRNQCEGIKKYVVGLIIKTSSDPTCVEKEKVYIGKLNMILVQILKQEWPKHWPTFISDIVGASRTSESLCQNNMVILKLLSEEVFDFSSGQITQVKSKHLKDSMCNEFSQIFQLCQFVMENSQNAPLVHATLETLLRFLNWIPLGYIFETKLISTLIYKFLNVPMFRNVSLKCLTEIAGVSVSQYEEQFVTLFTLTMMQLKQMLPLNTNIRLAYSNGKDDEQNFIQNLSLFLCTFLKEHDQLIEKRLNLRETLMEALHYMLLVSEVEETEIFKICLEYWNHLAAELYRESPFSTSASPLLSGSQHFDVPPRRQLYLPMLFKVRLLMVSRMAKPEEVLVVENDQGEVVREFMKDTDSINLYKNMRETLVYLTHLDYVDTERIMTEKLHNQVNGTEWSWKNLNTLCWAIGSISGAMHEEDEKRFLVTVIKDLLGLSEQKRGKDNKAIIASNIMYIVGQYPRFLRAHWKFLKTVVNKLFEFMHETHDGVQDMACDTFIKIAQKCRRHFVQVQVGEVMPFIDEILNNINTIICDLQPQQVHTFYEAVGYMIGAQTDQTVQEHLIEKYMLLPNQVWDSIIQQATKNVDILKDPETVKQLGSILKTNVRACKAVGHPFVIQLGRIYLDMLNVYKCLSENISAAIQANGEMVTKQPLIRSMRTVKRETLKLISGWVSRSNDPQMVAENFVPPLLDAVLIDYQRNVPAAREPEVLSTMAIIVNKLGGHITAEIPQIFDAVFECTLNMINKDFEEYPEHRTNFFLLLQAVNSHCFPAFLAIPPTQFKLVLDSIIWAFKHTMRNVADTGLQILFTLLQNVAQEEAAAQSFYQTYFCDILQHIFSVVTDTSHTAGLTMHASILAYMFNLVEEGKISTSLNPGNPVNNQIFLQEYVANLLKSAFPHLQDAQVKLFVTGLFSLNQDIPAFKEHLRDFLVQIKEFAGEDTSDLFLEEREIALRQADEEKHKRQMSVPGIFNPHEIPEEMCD
The test system is the same in assay [14]. Kind of assay: Inhibition of CRM1 C528S mutant-mediated nuclear export in human HCT-116 cells assessed as inhibition of nuclear export of cargoes at 1 uM. Format: cell-based.
Assay [15] relates to HCT-116. Kind of assay: Induction of apoptosis in human HCT-116 cells assessed as early apoptotic at 0.5 uM measured after 24 hrs by AnnexinV-FITC/propidium iodide staining based flow cytometric analysis (reference value: 3.55%). Format: functional. In general terms: Flow cytometry measures light scatter and fluorescence of single cells or particles in a stream.
Assay [16] concerns RKO. Kind of assay: Induction of apoptosis in human RKO cells assessed as early apoptotic at 0.5 uM measured after 24 hrs by AnnexinV-FITC/propidium iodide staining based flow cytometric analysis (reference value: 1.79%). Format: functional.
The subject of assay [17] is HCT-116. In words: Inhibition of colony formation in human HCT-116 cells assessed as decrease in colonies upto 0.5 uM incubated for 72 hrs by crystal violet staining based assay. In kind it is functional, cell-based.
Assay [18] deals with HCT-116. In words: Induction of apoptosis in human HCT-116 cells assessed as necrotic at 1 uM measured after 24 hrs by AnnexinV-FITC/propidium iodide staining based flow cytometric analysis (reference value: 2.22%). In kind it is functional.
The subject of assay [19] is HCT-116. Kind of assay: Induction of apoptosis in human HCT-116 cells assessed as viable cells at 0.5 uM measured after 24 hrs by AnnexinV-FITC/propidium iodide staining based flow cytometric analysis (reference value: 89.32%). Format: functional. Particulars: read-out: Activity.
Assay [20] relates to HCT-116. Kind of assay: Induction of apoptosis in human HCT-116 cells assessed as necrotic at 0.5 uM measured after 24 hrs by AnnexinV-FITC/propidium iodide staining based flow cytometric analysis (reference value: 2.22%). Format: functional.
Assay [21] deals with RKO. In words: Induction of apoptosis in human RKO cells assessed as early apoptotic at 1 uM measured after 24 hrs by AnnexinV-FITC/propidium iodide staining based flow cytometric analysis (reference value: 1.79%). In kind it is functional.
Assay [22] concerns the target T1, Exportin-1. In words: Binding affinity to CRM1 in human HCT-116 cells assessed as thermal stabilization at 50 uM at 50 to 68 degreeC incubated for 3 mins by […] analysis. In kind it is cell-based.
The target of assay [23] is T1, Exportin-1. In words: Binding affinity to CRM1 (unknown origin) assessed as dissociation constant by microscale thermophoresis assay.
For assay [24], the system named is RKO. In words: Inhibition of colony formation in human RKO cells assessed as decrease in colonies upto 0.5 uM incubated for 72 hrs by crystal violet staining based assay. In kind it is functional, cell-based.
In assay [25] the test system is RKO. Kind of assay: Induction of apoptosis in human RKO cells assessed as late apoptotic at 0.5 uM measured after 24 hrs by AnnexinV-FITC/propidium iodide staining based flow cytometric analysis (reference value: 4.70%). In kind it is functional.
Assay [26] has as its system RKO. In words: Induction of apoptosis in human RKO cells assessed as increase in cleaved PARP-1 level by Western blot analysis. In kind it is functional, cell-based.
In assay [27] the test system is HCT-116. Kind of assay: Induction of apoptosis in human HCT-116 cells assessed as increase in cleaved PARP-1 level by Western blot analysis. In kind it is functional, cell-based.
Assay [28] deals with HCT-116. Kind of assay: Induction of apoptosis in human HCT-116 cells assessed as early apoptotic at 1 uM measured after 24 hrs by AnnexinV-FITC/propidium iodide staining based flow cytometric analysis (reference value: 3.55%). Format: functional.
Assay [29] deals with RKO. In words: Induction of apoptosis in human RKO cells assessed as viable cells at 0.5 uM measured after 24 hrs by AnnexinV-FITC/propidium iodide staining based flow cytometric analysis (reference value: 92.51%). Format: functional. Particulars: read-out: Activity.
In assay [30] the test system is RKO. In words: Induction of apoptosis in human RKO cells assessed as late apoptotic at 1 uM measured after 24 hrs by AnnexinV-FITC/propidium iodide staining based flow cytometric analysis (reference value: 4.70%). Format: functional.
Assay [31] concerns HCT-116. In words: Induction of apoptosis in human HCT-116 cells assessed as late apoptotic at 0.5 uM measured after 24 hrs by AnnexinV-FITC/propidium iodide staining based flow cytometric analysis (reference value: 4.91%). In kind it is functional.
The test system of assay [32] is RKO. In words: Induction of apoptosis in human RKO cells assessed as necrotic at 1 uM measured after 24 hrs by AnnexinV-FITC/propidium iodide staining based flow cytometric analysis (reference value: 1%). Format: functional.
Assay [33] relates to HCT-116. Kind of assay: Induction of apoptosis in human HCT-116 cells assessed as late apoptotic at 1 uM measured after 24 hrs by AnnexinV-FITC/propidium iodide staining based flow cytometric analysis (reference value: 4.91%). In kind it is functional.
In assay [34] the test system is RKO. In words: Induction of apoptosis in human RKO cells assessed as necrotic at 0.5 uM measured after 24 hrs by AnnexinV-FITC/propidium iodide staining based flow cytometric analysis (reference value: 1%). Format: functional.
The subject of assay [35] is HCT-116. In words: Induction of apoptosis in human HCT-116 cells assessed as viable cells at 1 uM measured after 24 hrs by AnnexinV-FITC/propidium iodide staining based flow cytometric analysis (reference value: 89.32%). In kind it is functional. Particulars: read-out: Activity.
Assay [36] has as its system RKO. In words: Induction of apoptosis in human RKO cells assessed as viable cells at 1 uM measured after 24 hrs by AnnexinV-FITC/propidium iodide staining based flow cytometric analysis (reference value: 92.51%). Format: functional. Particulars: read-out: Activity.
Assay [37] has as its target T1, Exportin-1. Kind of assay: Inhibition of CRM1 nuclear export in human HeLa cells assessed as CRM1 depletion at 1 uM measured after 6 hrs. In kind it is cell-based.
Assay [38] addresses T1, Exportin-1. Kind of assay: Inhibition of CRM1-mediated nuclear export in human HeLa cells expressing mCherry-tagged NES reporter at 1 uM incubated for 3 hrs by confocal microscopy analysis. Format: cell-based.
For assay [39], the target named is T1, Exportin-1. Kind of assay: Inhibition of CRM1 nuclear export in human HeLa cells assessed as CRM1 depletion at 10 uM measured after 6 hrs. Format: cell-based.
In assay [40] the target is T1, Exportin-1. Kind of assay: Inhibition of CRM1 nuclear export in human HeLa cells assessed as CRM1 depletion at 50 uM measured after 6 hrs. In kind it is cell-based.

T1 sequence (O14980 whole entry): as the sequence (O14980 whole entry C528S) above, with S528C counted along it

Take `C/C=C/[C@@H]1O[C@H]([C@@H](N)/C=C/C=C(\C)C[C@@H](C)/C=C(C)\C=C\[C@H](O)C[C@H](N)CC(=O)OC)C[C@H](O)[C@@H]1C`: the inhibition entry (on Exportin-1 [1]; at Exportin-1 [2]; on Exportin-1 [6]; at Exportin-1 [10]; at Exportin-1 [11]; in assay [13]) was “Active” in each case. The pIC50 is 6.26 at Exportin-1 [2], 6.52 with RKO [5], 6.47 against Exportin-1 [9] and 6.49 in the assay with HCT-116 [12]. The outcome with HeLa [3] and with HeLa [8] was inactive. The outcome with RKO [4] and in the assay on HCT-116 [7] was Active. Also, the inhibition entry on Exportin-1 [9] is “Dose-Dependent Effect”. For the same compound, the inhibition entry in assay [14] was “inactive”.
With `C/C=C/[C@@H]1O[C@H]([C@H](N)/C=C/C=C(\C)C[C@@H](C)/C=C(C)\C=C\[C@H](O)C[C@H](N)CC(=O)OC)C[C@H](O)[C@@H]1C`, the inhibition entry on Exportin-1 [1], on Exportin-1 [2], with HCT-116 [17], at Exportin-1 [6], with RKO [24] and on Exportin-1 [11] was “Active” in each case. Besides, the inhibition entry in assay [13] was “Active”. For the same compound, the Activity with HCT-116 [15] is given as 5.73%; in the assay on RKO [16], 3.34%; in the assay with HCT-116 [18], 8.17%; with HCT-116 [20], 3.75%; in the assay on RKO [21], 2.78%; with RKO [25] it was 11.78%. For the same compound, the Activity in the assay on HCT-116 [28] was determined as 4.32%; in the assay with RKO [30], 18.43%; with HCT-116 [31] it was 12.47%; in the assay on RKO [32], 7.93%; in the assay on HCT-116 [33], 25.08%; with RKO [34], 6.09%. The pIC50 was 6.57 at Exportin-1 [2], 6.72 in the assay with RKO [5], 6.55 on Exportin-1 [9] and 6.92 in the assay with HCT-116 [12]. The result with HeLa [3] and in the assay on HeLa [8] was inactive. In addition, the result with RKO [4], on Exportin-1 [22], with HCT-116 [7], with RKO [26] and with HCT-116 [27] was Active. Also, the viability at 0.5 µM was 78% in the assay with HCT-116 [19] and 78.8% in the assay with RKO [29]. Further, the negative logarithm of the Kd (pKd) at Exportin-1 [23] is 5.34. In addition, the inhibition result on Exportin-1 [9] is “Dose-Dependent Effect”. For the same compound, the inhibition entry in assay [14] was “inactive”. The results for the viability at 1 µM in the assay on HCT-116 [35] and with RKO [36] were 62.4% and 70.9%, respectively.
Regarding `C/C=C/[C@@H]1O[C@H]([C@H](N)/C=C/C=C(\C)C[C@@H](C)/C=C(C)\C=C\[C@H](O)C[C@H](N)CC(=O)O)C[C@H](O)[C@@H]1C`, the pKd on Exportin-1 [23] is 5.23.
With `C/C=C/[C@@H]1O[C@H]([C@@H](N)/C=C/C=C(\C)C[C@@H](C)/C=C(C)\C=C\[C@H](O)C[C@H](N)CC(N)=O)C[C@H](O)[C@@H]1C`, the inhibition entry at Exportin-1 [37], on Exportin-1 [11] and on Exportin-1 [38] was “inactive” each time.
`C/C=C/[C@@H]1O[C@H]([C@@H](N)/C=C/C=C(\C)C[C@@H](C)/C=C(C)\C=C\[C@H](O)C[C@@H](CC(=O)NCCO)NCCO)C[C@H](O)[C@@H]1C`: the inhibition entry at Exportin-1 [37] and on Exportin-1 [11] was “inactive” in each case.
On to `CCN(CC)CCCC(C)Nc1ccnc2cc(Cl)ccc12` (configuration not stated), for which the inhibition entry at Exportin-1 [39] was “Active”.
For `O=C(/C=C\n1cnc(-c2cc(C(F)(F)F)cc(C(F)(F)F)c2)n1)NNc1cnccn1`, the inhibition result on Exportin-1 [37] is “inactive”.
`CC(C)C[C@@H](C=O)NC(=O)[C@H](CC(C)C)NC(=O)[C@H](CC(C)C)NC(=O)OCc1ccccc1` (Cbz-Leu-Leu-Leu-aldehyde): on Exportin-1 [40], the inhibition result was “Active”.

What is called pIC50 is −log10 of the IC50, conventionally taken in molar units. By pKd is commonly meant the Kd on a negative log10 scale, so that one unit is a factor of ten.
